According to publication PMC11473416, “Coumarin-chalcone derivatives as dual NLRP1 and NLRP3 inflammasome inhibitors targeting oxidative stress and inflammation in neurotoxin-induced HMC3 and BE(2)-M17 cell models of Parkinson's disease” (Frontiers in Aging Neuroscience, 2024):

Experiments:
[1] = DPPH free radical scavenging activity; details: 10–160 μM, 30 min, room temperature
Protocol: Stable 1,1-diphenyl-2-picrylhydrazyl (DPPH) radical in ethanol (100 μM; Sigma-Aldrich) was used to measure the antioxidant activity of these LM compounds. After addition of quercetin (positive control) or LM compound (10–160 μM), the mixture was vortexed for 15 s and incubated at room temperature for 30 min. Subsequently, the mixture was measured spectrophotometrically at 517 nm (Multiskan GO microplate spectrophotometer; Thermo Fisher Scientific). The free radical scavenging activity was calculated as the percentage of DPPH discoloration using the formula 1 – (absorbance of sample/absorbance of control) × 100%, with half maximal effective concentration (EC50) calculated using the interpolation method.

[2] = oxygen radical antioxidant capacity (OxiSelect kit); details: at 4–100 μM concentration
Protocol: The test of oxygen radical antioxidant capacity (Ou et al., [2001]) was performed using OxiSelect™ kit (Cell Biolabs, San Diego, CA, USA). Briefly, trolox standards (2.5–50 μM) and LM compounds (4–100 μM) were prepared using a serial dilution in a mixture containing 50% acetone and 50% water. After adding fluorescein to blank (50% acetone/50% water), standards, or samples, the mixture was mixed and incubated at 37°C for 30 min. Subsequently, free radical initiator 2,2′-azobis(2-methylpropionamidine) dihydrochloride (AAPH) was added to generate peroxyl radicals (ROO•). The quenching of fluorescent probe over time was recorded at 480 nm excitation and 520 nm emission for 60 min (Bio-Tek FLx800). To quantify the oxygen radical absorbance capacity, the area under the curve (AUC) for blank, standard and samples were calculated. After subtraction of the blank, trolox equivalent (μM) of samples were determined using a calibration curve with trolox standards.

[3] = cytotoxicity MTT assay in HMC3 cells; assay type: cell-based, human; details: human, HMC3 microglial cells, MTT, 1–100 μM, 24 h
Protocol: (§1) Human HMC3 microglial (CRL-3304) and neuroblastoma BE(2)-M17 (CRL-2267) cells were obtained from American Type Culture Collection. BE(2)-M17 develops a better dopaminergic phenotype than SH-SY5Y when treated with retinoic acid to direct neuronal differentiation (Carvajal-Oliveros et al., [2022]). Cells were routinely maintained in Dulbecco's Modified Eagle Medium-Nutrient Mixture F12 (DMEM-F12) supplemented with 10% fetal bovine serum (FBS; Thermo Fisher Scientific, Waltham, MA, USA) in a 37°C incubator, with 95% relative humidity and 5% CO2 (NuAire, Plymouth, MN, USA).
(§2) To evaluate cytotoxicity of LM compounds and MPP^+, HMC3 (1 × 10^4) or BE(2)-M17 (2 × 10^4) cells were plated on 96-well dishes, grown for 20 h, and treated with LM compounds (1–100 μM) or MPP^+ [HMC3: 0–8 mM; BE(2)-M17: 0–5 mM]. Next day, 20 μl of tetrazolium dye 3-(4,5-dimethylthiazol-2-yl)-2,5-diphenyltetrazolium bromide (MTT, 5 mg/ml; Sigma-Aldrich) was added to the cells at 37°C for 3 h. The resulted insoluble purple formazan products were dissolved by lysis buffer (composition: 10% Triton X-100, 0.1 N HCl, 18% isopropanol). The absorbance of the dissolved product at optical density (OD) 570 nm was read by using a FLx800 fluorescence microplate spectrophotometer (Bio-Tek, Winooski, VT, USA). The half maximal inhibitory concentration (IC50) of LM compounds was determined through the construction of a dose-response curve. MPP^+ at 4 mM (HMC3 cell viability: 65%−69%) or 0.62 mM [BE(2)-M17 cell viability: 79%−84%] was selected to induce inflammation for further experiments.

[4] = cytotoxicity MTT assay in BE(2)-M17 cells; assay type: cell-based, human; details: human, BE(2)-M17 neuroblastoma cells, MTT, 1–100 μM, 24 h
Protocol: as §1, §2

EC50 [1] [µM] | SMILES | oxygen radical antioxidant capacity, trolox equivalent [2] [µM] | IC50 at 24 h [3] [µM] | IC50 at 24 h [4] [µM]
21 | O=c1c(O)c(-c2ccc(O)c(O)c2)oc2cc(O)cc(O)c12 [Quercetin, reference compound] | 14 to 39 |  | 
 | COc1ccccc1/C=C/C(=O)c1c(O)c2ccccc2oc1=O [LM-009] |  | > 100 | > 100
